# From patent US11834430B2, “Compounds useful as inhibitors of isoprenylcysteine carboxyl methyltransferase” (AGENCY FOR SCIENCE, TECHNOLOGY AND RESEARCH, priority 2017, dated 2023)
# “And” between values parts separate entries of the source, which are not always exact repeats. Equal entries are not always repeated.
# Biological target: human ICMT (Homo sapiens (Human), UniProt O60725)
# Experiment: ICMT biochemical assay (Methyltransferase-Glo)
# Conditions: ICMT membrane extract from Sf-9 cells; 30 min preincubation, 90 min reaction
# Description: Recombinant human ICMT was prepared by infection of Sf9 cells with a recombinant baculovirus containing the entire open reading frame of the human ICMT cDNA.
# Cells producing ICMT were harvested 66 hours post-infection. The cells are homogenized and resuspended in 5 mM NaHPO4 (pH 7.0), and a cocktail of protease inhibitors. The membrane was pelleted, after removal of nuclei and debris, at 100,000×g for 1 hour. Membranes were resuspended in 5 mM NaHPO4 (pH 7.0) with 5 mM EDTA at 10-12 mg/ml. The suspension was stored at −80° C. in multiple aliquots.
# An ICMT enzymatic assay was developed using Promega's Methyltransferase-GloTMreagents. In the assay, ICMT catalyzes the methylation of the N-Acetyl-S-farnesyl-L-cysteine by transferring a methyl group from SAM to the farnesylated cysteine and further converts the SAM to SAH. The methyltransferase activity is measured based on the amount of SAH produced from the reaction through the use of coupling enzymes that convert the SAH to ATP. The MTase-Glo detection solution then catalyzes the formation of light from ATP.
# A final concentration of 2.0 μM and 20 μM of SAM and peptide were added and further incubated for 90 minutes at room temperature before adding the MTase Glo and detection reagent. Reaction signals were detected using microplate readers on luminescent mode (Satire Tecan). The IC50 was determined by nonlinear regression, using GraphPad Prism version, 5.03.
# Chain of human ICMT (O60725 whole entry): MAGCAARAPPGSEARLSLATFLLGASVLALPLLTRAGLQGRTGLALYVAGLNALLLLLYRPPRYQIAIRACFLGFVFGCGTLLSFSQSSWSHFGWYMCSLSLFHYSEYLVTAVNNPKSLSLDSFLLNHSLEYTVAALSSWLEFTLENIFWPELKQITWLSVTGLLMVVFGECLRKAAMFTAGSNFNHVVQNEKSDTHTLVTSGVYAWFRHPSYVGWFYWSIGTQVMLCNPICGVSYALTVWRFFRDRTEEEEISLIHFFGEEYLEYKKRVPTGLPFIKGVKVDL
row,IC50,Structure (SMILES)
1,20 nM,"C#Cc1ccc(OCCOc2cccc(-n3ccnc3C)c2)c(F)c1 [Compound 51, 1-(3-(2-(4-ethynyl-2-fluorophenoxy)ethoxy)phenyl)-2-methyl-1H-imidazole]"
2,3.6 nM,"N#Cc1ccc(OCCOc2cccc(-n3ccnc3C3CC3)c2)c(N)c1 [Compound 52, 3-amino-4-(2-(3-(2-cyclopropyl-1H-imidazol-1-yl)phenoxy)ethoxy)benzonitrile]"
3,32 nM,"Cn1nccc1-c1cccc(OCCOc2ccc(F)cc2C#N)c1 [Compound 54, 5-fluoro-2-(2-(3-(1-methyl-1H-pyrazol-5-yl)phenoxy)ethoxy)benzonitrile]"
4,11 nM,"Cc1nccn1-c1cccc(OC[C@@H](C)Oc2ccc(C#N)cc2Cl)c1 [Compound 55, (R)-3-chloro-4-((1-(3-(2-methyl-1H-imidazol-1-yl)phenoxy)propan-2-yl)oxy)benzonitrile]"
5,0.15 nM,"Cc1nccn1-c1cccc(OC[C@H](C)Oc2ccc(C#N)cc2Cl)c1 [Compound 56, (S)-3-chloro-4-((1-(3-(2-methyl-1H-imidazol-1-yl)phenoxy)propan-2-yl)oxy)benzonitrile]"
6,9 nM,"Cn1nccc1-c1cccc(OCCOc2ccc(C#N)cc2)c1 [Compound 57, 4-(2-(3-(1-methyl-1H-pyrazol-5-yl)phenoxy)ethoxy)benzonitrile]"
7,60 nM,"Cc1ccc(OCCOc2cccc(-n3ccnc3C)c2)c(F)c1 [Compound 58, 1-(3-(2-(2-fluoro-4-methylphenoxy)ethoxy)phenyl)-2-methyl-1H-imidazole]"
8,8.5 nM,"N#Cc1ccc(OCCOc2cccc(-n3ccnc3C3CC3)c2)cc1 [Compound 62, 4-(2-(3-(2-cyclopropyl-1H-imidazol-1-yl)phenoxy)ethoxy)benzonitrile]"
9,18 nM and 6 nM,"Cc1nccn1-c1cccc(OC(C)C(C)Oc2ccc(C#N)cc2F)c1 (stereo not drawn) [Compound 63, 3-fluoro-4-(3-(3-(2-methyl-1H-imidazol-1-yl)phenoxy)butan-2-yloxy)benzonitrile]"
10,270 nM and 470 nM,"CC(COc1cccc(-c2ccno2)c1)Oc1ccc(C#N)cc1F (stereo not drawn) [Compound 64, 3-fluoro-4-((1-(3-(isoxazol-5-yl)phenoxy)propan-2-yl)oxy)benzonitrile]"
11,4670 nM and 4390 nM,"C[C@H](COc1cccc(-c2ccno2)c1)Oc1ccc(C#N)cc1F [Compound 65, (R)-3-fluoro-4-((1-(3-(isoxazol-5-yl)phenoxy)propan-2-yl)oxy)benzonitrile]"
12,180 nM and 190 nM,"C[C@@H](COc1cccc(-c2ccno2)c1)Oc1ccc(C#N)cc1F [Compound 66, (S)-3-fluoro-4-((1-(3-(isoxazol-5-yl)phenoxy)propan-2-yl)oxy)benzonitrile]"
13,140 nM and 100 nM,"N#Cc1ccc(OCCOc2cccc(-c3cnoc3)c2)cc1 [Compound 67, 4-(2-(3-(isoxazol-4-yl)phenoxy)ethoxy)benzonitrile]"
14,1.5 nM and 13 nM,"Cc1cc(C#N)ccc1O[C@H](C)COc1cccc(-n2ccnc2C2CC2)c1 [Compound 68, (R)-4-((1-(3-(2-cyclopropyl-1H-imidazol-1-yl)phenoxy)propan-2-yl)oxy)-3-methylbenzonitrile]"
15,4.5 nM,"COc1cc(C#N)ccc1O[C@@H](C)COc1cccc(-n2ccnc2C)c1 [Compound 72, (S)-3-methoxy-4-((1-(3-(2-methyl-1H-imidazol-1-yl)phenoxy)propan-2-yl)oxy)benzonitrile]"
16,950 nM,"Cc1nccn1-c1cccc(OCCOc2ccc(C#N)nn2)c1 [Compound 73, 6-(2-(3-(2-methyl-1H-imidazol-1-yl)phenoxy)ethoxy)pyridazine-3-carbonitrile]"
17,65 nM,"Cc1nccn1-c1cccc(OCCOc2ncc(C#N)cc2F)c1 [Compound 74, 5-fluoro-6-(2-(3-(2-methyl-1H-imidazol-1-yl)phenoxy)ethoxy)nicotinonitrile]"
18,60 nM and 62 nM,"Cn1nccc1-c1cccc(OCCOc2ccc(C#N)cn2)c1 [Compound 75, 6-(2-(3-(1-methyl-1H-pyrazol-5-yl)phenoxy)ethoxy)nicotinonitrile]"
19,31 nM,"Cc1nccn1-c1cccc(OC[C@H](C)Oc2ccc(C#N)cc2F)c1 [Compound 79, (S)-3-fluoro-4-((1-(3-(2-methyl-1H-imidazol-1-yl)phenoxy)propan-2-yl)oxy)benzonitrile]"
20,210 nM and 190 nM,"Cn1nccc1-c1cccc(OCCOc2ncc(C#N)cc2F)c1 [Compound 82, 5-fluoro-6-(2-(3-(1-methyl-1H-pyrazol-5-yl)phenoxy)ethoxy)nicotinonitrile]"
21,3.7 nM,"N#Cc1cnc(OCCOc2cccc(-n3ccnc3C3CC3)c2)c(F)c1 [Compound 83, 6-(2-(3-(2-cyclopropyl-1H-imidazol-1-yl)phenoxy)ethoxy)-5-fluoronicotinonitrile]"
22,28 nM,"N#Cc1ccc(OCCOc2cccc(-c3cnoc3)c2)c(F)c1 [Compound 84, 3-fluoro-4-(2-(3-(isoxazol-4-yl)phenoxy)ethoxy)benzonitrile]"
23,15 nM,"Cc1nccn1-c1cc(OCCOc2ccc(C#N)cc2)ccn1 [Compound 85, 4-(2-((2-(2-methyl-1H-imidazol-1-yl)pyridin-4-yl)oxy)ethoxy)benzonitrile]"
24,17 nM,"Cc1nccn1-c1cccc(OCCOc2ccc(C#N)cc2F)n1 [Compound 86, 3-fluoro-4-(2-((6-(2-methyl-1H-imidazol-1-yl)pyridin-2-yl)oxy)ethoxy)benzonitrile]"
25,33 nM,"Cc1nccn1-c1cc(OCCOc2ncc(C#N)cc2F)ccc1F [Compound 87, 5-fluoro-6-(2-(4-fluoro-3-(2-methyl-1H-imidazol-1-yl)phenoxy)ethoxy)nicotinonitrile]"
26,2.8 nM,"N#Cc1ccc(OCCOc2ccnc(-n3ccnc3C3CC3)c2)cc1 [Compound 89, 4-(2-((2-(2-cyclopropyl-1H-imidazol-1-yl)pyridin-4-yl)oxy)ethoxy)benzonitrile]"
27,37 nM,"N#Cc1cnc(OCCOc2ccnc(-n3ccnc3C3CC3)c2)c(F)c1 [Compound 90, 6-(2-((2-(2-cyclopropyl-1H-imidazol-1-yl)pyridin-4-yl)oxy)ethoxy)-5-fluoronicotinonitrile]"
28,120 nM,"Cc1nccn1-c1cc(OCCOc2ncc(C#N)cc2F)ccn1 [Compound 91, 5-fluoro-6-(2-((2-(2-methyl-1H-imidazol-1-yl)pyridin-4-yl)oxy)ethoxy)nicotinonitrile]"
29,300 to 1000 nM,"Cn1nccc1-c1cncc(OCCOc2ccc(C#N)cc2F)c1 [Compound 92, 3-fluoro-4-(2-((5-(1-methyl-1H-pyrazol-5-yl)pyridin-3-yl)oxy)ethoxy)benzonitrile]"

# Same assay, conditions: unit (nM)
row,IC50 [nM],Structure (SMILES)
1,0.81,"COc1cc(C#N)ccc1O[C@@H](C)COc1cccc(-c2ccnn2C)c1 [Compound 60, (S)-3-methoxy-4-((1-(3-(1-methyl-1H-pyrazol-5-yl)phenoxy)propan-2-yl)oxy)benzonitrile]"
2,0.88,"Cc1cc(C#N)ccc1OC(C)COc1cccc(-n2ccnc2C2CC2)c1 (stereo not drawn) [Compound 61, 4-((1-(3-(2-cyclopropyl-1H-imidazol-1-yl)phenoxy)propan-2-yl)oxy)-3-methylbenzonitrile]"
3,0.39,"N#Cc1ccc(OCCOc2ccnc(-n3ccnc3C3CC3)c2)c(F)c1 [Compound 76, 4-(2-((2-(2-cyclopropyl-1H-imidazol-1-yl)pyridin-4-yl)oxy)ethoxy)-3-fluorobenzonitrile]"
4,0.7,"COc1cc(C#N)ccc1O[C@H](C)COc1cccc(-n2ccnc2C)c1 [Compound 77, (R)-3-methoxy-4-((1-(3-(2-methyl-1H-imidazol-1-yl)phenoxy)propan-2-yl)oxy)benzonitrile]"
